Reference: publication PMC11089506 (Journal of Medicinal Chemistry, 2024)
Entries after “also recorded” stand apart in the source; their conditions may differ. Structures can show the parent of a compound that is named as a salt. Where two headings read alike, the source gives them in different places.

Key:
5-HT1D = biological target: T1, 5-HT1D (Rattus norvegicus, UniProt P28565); assay: radioligand competition binding, [3H]serotonin
T1 construct: Eurofins

5-HT4e = biological target: T2, 5-HT4e (Homo sapiens, UniProt Q13639); assay: radioligand competition binding, [3H]GR 113808
T2 construct: Eurofins

5-HT5a = biological target: T3, 5-HT5a (Homo sapiens, UniProt P47898); assay: radioligand competition binding, [3H]LSD; details: read-out: % inhibition of the specific radioligand binding
T3 construct: Eurofins

5-HT6 = biological target: T4, 5-HT6 (Homo sapiens, UniProt P50406); assay: radioligand competition binding, [3H]LSD
T4 construct: Eurofins

5-HT7 = biological target: T5, 5-HT7 (Homo sapiens, UniProt P34969); assay: radioligand competition binding, [3H]LSD
T5 construct: Eurofins

[1] = biological target: T6, α2C (adrenergic receptor) (Homo sapiens, UniProt P18825); assay: radioligand competition binding, [3H]RX 821002
T6 construct: Eurofins

β2 (adrenergic receptor) = biological target: T7, β2 (adrenergic receptor) (Homo sapiens, UniProt P07550); assay: radioligand competition binding, [3H](-)CGP 12177
T7 construct: Eurofins

[2] = biological target: T8, D2S (dopaminergic receptor) (Homo sapiens, UniProt P14416); assay: radioligand competition binding, [3H]7-OH-DPAT; details: read-out: % inhibition of the specific radioligand binding
T8 construct: Eurofins

[3] = biological target: T9, D5 (dopaminergic receptor) (Homo sapiens, UniProt P21918); assay: radioligand competition binding, [3H]SCH 23390; details: read-out: % inhibition of the specific radioligand binding
T9 construct: Eurofins

[4] = biological target: T10, H2 (histaminergic receptor) (Homo sapiens, UniProt P25021); assay: radioligand competition binding, [125I]APT
T10 construct: Eurofins

[5] = biological target: T11, H3 (histaminergic receptor) (Homo sapiens, UniProt Q9Y5N1); assay: radioligand competition binding, [3H]N-α-methyl-histamine
T11 construct: Eurofins

M1 (muscarinic receptor) = biological target: T12, M1 (muscarinic receptor) (Homo sapiens, UniProt P11229); assay: radioligand competition binding, [3H]pirenzepine
T12 construct: Eurofins
T12 sequence (P11229 1-460): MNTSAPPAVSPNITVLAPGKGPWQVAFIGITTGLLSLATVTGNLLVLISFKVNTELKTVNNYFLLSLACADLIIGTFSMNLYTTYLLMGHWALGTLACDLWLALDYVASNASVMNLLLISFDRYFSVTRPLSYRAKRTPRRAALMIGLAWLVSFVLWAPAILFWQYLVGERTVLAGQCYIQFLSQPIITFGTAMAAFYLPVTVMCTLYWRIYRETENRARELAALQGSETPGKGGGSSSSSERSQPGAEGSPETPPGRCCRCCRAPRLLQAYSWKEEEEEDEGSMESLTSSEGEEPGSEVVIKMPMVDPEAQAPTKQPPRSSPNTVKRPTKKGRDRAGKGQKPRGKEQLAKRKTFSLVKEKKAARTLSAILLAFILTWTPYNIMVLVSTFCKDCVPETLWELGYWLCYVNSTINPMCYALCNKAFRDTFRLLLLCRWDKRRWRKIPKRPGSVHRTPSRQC

Adenosine receptor A1 = biological target: T13, Adenosine receptor A1 (Homo sapiens, UniProt P30542); assay: radioligand competition binding, [3H]DPCPX
T13 construct: Eurofins

Bradykinin receptor B2 = biological target: T14, Bradykinin receptor B2 (Homo sapiens, UniProt P30411); assay: radioligand competition binding, [3H]Bradykinin
T14 construct: Eurofins

Cannabinoid receptor CB1 = biological target: T15, Cannabinoid receptor CB1 (Homo sapiens, UniProt P21554); assay: radioligand competition binding, [3H]SR141716A
T15 construct: Eurofins

Endothelin receptor ETB = biological target: T16, Endothelin receptor ETB (Homo sapiens, UniProt P24530); assay: radioligand competition binding, [125I]Endothelin-1
T16 construct: Eurofins

[6] = biological target: T17, Epidermal Growth Factor receptor (Homo sapiens, UniProt P00533); assay: radioligand competition binding, [125I]EGF
T17 construct: Eurofins

GABAA receptor (GABA) = assay: radioligand competition binding, [3H]Muscimol; design: species or system rat
GABAA receptor (benzod.) = assay: radioligand competition binding, [3H]Flunitrazepam; design: species or system rat
Kainate receptor = assay: radioligand competition binding, [3H]Kainic acid; design: species or system rat
Imidazoline receptor I2 = assay: radioligand competition binding, [3H]Idazoxan; design: species or system rat
[7] = biological target: T18, Nicotinic acetylcholine receptor (muscle-type) (Homo sapiens, UniProt P02708+P07510+Q07001); assay: radioligand competition binding, [125I]α-Bungarotoxin
T18 construct: Eurofins

[8] = biological target: T19, Nicotinic acetylcholine receptor α3β4 (Homo sapiens, UniProt P30926+P32297); assay: radioligand competition binding, [125I]Epibatidine
T19 construct: Eurofins

Tachykinin receptor NK1 = biological target: T20, Tachykinin receptor NK1 (Homo sapiens, UniProt P25103); assay: radioligand competition binding, [3H]Substance P
T20 construct: Eurofins (contract laboratory)

Androgen receptor (NHR) [9] = biological target: T21, Androgen receptor (NHR) (Homo sapiens, UniProt P10275); details: estimated from the % inhibition data
Androgen receptor (NHR) [10] = biological target: T21, Androgen receptor (NHR); assay: biochemical; details: read-out: % inhibition of the specific radioligand binding
GABA transporter = GABA transporter (Rattus norvegicus, UniProt P23978); assay: biochemical; details: read-out: % inhibition of the specific radioligand binding
human 5-HT2CR [11] = biological target: T22, human 5-HT2CR (Homo sapiens, UniProt P28335); assay: Ca2+/Fluo-4 assay, agonist mode, stable 5-HT2CR-HEK293 cells
human 5-HT2CR [12] = biological target: T22, human 5-HT2CR; assay: Ca2+/Fluo-4 assay, antagonist mode (5-HT EC90 as agonist), stable 5-HT2CR-HEK293 cells; details: 5-HT2CR pIC50 ± S.E.M., Table S2
[13] = estimated from the % inhibition data
[14] = read-out: % inhibition of the specific radioligand binding

`COc1cc(C(F)(F)F)c(OC)cc1[C@@H]1CCCNC1` [(S)-11, 3-(2,5-Dimethoxy-4-(trifluoromethyl)phenyl)piperidine Hydrochloride] was tested, and the IC50 (5-HT1D; [13]) was 0.1 to 1 µM, the inhibition at 0.1 µM (5-HT1D; [14]) was 18% and the inhibition at 1 µM (5-HT1D; [14]) was 64%. It also gave an inhibition at 10 µM (5-HT1D; [14]) of 93%, an IC50 (5-HT4e; [13]) greater than 10 µM and an inhibition at 10 µM (5-HT4e; [14]) of 30%. It also gave an inhibition at 10 µM (5-HT5a) of 4%, an IC50 (5-HT6; [13]) of 1 to 10 µM and an inhibition at 1 µM (5-HT6; [14]) of 24%. The inhibition at 10 µM (5-HT6; [14]) was 77%, the IC50 (5-HT7; [13]) was 1 to 10 µM and the inhibition at 1 µM (5-HT7; [14]) was 17%. The inhibition at 10 µM (5-HT7; [14]) was 62%, the IC50 [1, 13] was greater than 10 µM and the inhibition at 10 µM [1, 14] was 36%. It also gave an IC50 (β2 (adrenergic receptor); [13]) of roughly 10 µM, an inhibition at 1 µM (β2 (adrenergic receptor); [14]) of 2% and an inhibition at 10 µM (β2 (adrenergic receptor); [14]) of 55%. The inhibition at 10 µM [2] was 59%, the inhibition at 10 µM [3] was 26% and the IC50 [4, 13] was greater than 10 µM. The inhibition at 10 µM [4, 14] was 10%, the IC50 [5, 13] was greater than 10 µM and the inhibition at 10 µM [5, 14] was 11%. The IC50 (M1 (muscarinic receptor); [13]) was roughly 1 µM, the inhibition at 1 µM (M1 (muscarinic receptor); [14]) was 51% and the inhibition at 10 µM (M1 (muscarinic receptor); [14]) was 90%. For the same molecule, the IC50 (Adenosine receptor A1; [13]) was greater than 10 µM, the inhibition at 10 µM (Adenosine receptor A1; [14]) was 4% and the IC50 (Bradykinin receptor B2; [13]) was greater than 10 µM. The inhibition at 10 µM (Bradykinin receptor B2; [14]) was 18%, the IC50 (Cannabinoid receptor CB1; [13]) was greater than 10 µM and the inhibition at 10 µM (Cannabinoid receptor CB1; [14]) was 14%. The IC50 (Endothelin receptor ETB; [13]) was greater than 10 µM, the inhibition at 10 µM (Endothelin receptor ETB; [14]) was -6% and the IC50 [6, 13] was greater than 10 µM. For the same molecule, the inhibition at 10 µM [6, 14] was -18%, the “% inhibition of the specific radioligand binding” value (“% inhibition” for short) (GABAA receptor (GABA); (S)-11 10 μM, n=1) was 1% and the IC50 (GABAA receptor (GABA); [13]) was greater than 10 µM. The “% inhibition” value (GABAA receptor (benzod.); (S)-11 10 μM, n=1) was -14%, the IC50 (GABAA receptor (benzod.); [13]) was greater than 10 µM and the “% inhibition” value (Kainate receptor; (S)-11 10 μM, n=1) was 9%. For the same molecule, the IC50 (Kainate receptor; [13]) was greater than 10 µM, the “% inhibition” value (Imidazoline receptor I2; (S)-11 10 μM, n=1) was 17% and the IC50 (Imidazoline receptor I2; [13]) was greater than 10 µM. The IC50 [7] was greater than 10 µM, the inhibition at 10 µM [7, 14] was 3% and the IC50 [8] was roughly 10 µM. The inhibition at 10 µM [8, 14] was 51%, the IC50 (Tachykinin receptor NK1; [13]) was greater than 10 µM and the inhibition at 10 µM (Tachykinin receptor NK1; [14]) was 31%. For the same molecule, the IC50 (Androgen receptor (NHR) [9]) was greater than 10 µM, the inhibition at 10 µM (Androgen receptor (NHR) [10]) was 1% and the inhibition at 10 µM (GABA transporter) was 29%. For the same molecule, the “agonist activity at 5-HT2CR (in words)” value (human 5-HT2CR [11]) was “negligible agonist efficacy; also recorded: absence of measurable agonist efficacy”, the EC50 (human 5-HT2CR [11]; 5-HT2CR EC50 (nM), Table 1, at least 3 independent experiments) was greater than 50000 nM and the “agonist activity at 5-HT2CR (in words)” value (human 5-HT2CR [11]; listed as 11eu) was “did not elicit measurable agonist activity”. The IC50 (human 5-HT2CR [12]) was 0.316 µM.
